How the values were obtained:
Assay in all cases: apparent dissociation constant (pKDapp, Kinobeads competition, Cheng-Prusoff corrected) (-log10 M); higher = tighter binding
AURKB = AURKB (UniProt Q96GD4); conditions: affinity matrix / lysate: Kinobeads, mixed HEK293/K-562/placenta lysate
BCR = BCR (UniProt P11274); conditions: affinity matrix / lysate: Kinobeads, mixed HEK293/K-562/placenta lysate
BMP2K = BMP2K (UniProt Q9NSY1); conditions: affinity matrix / lysate: Kinobeads, mixed HEK293/K-562/placenta lysate
CAMK2B = CAMK2B (UniProt Q13554); conditions: affinity matrix / lysate: Kinobeads, mixed HEK293/K-562/placenta lysate
CDC2 = CDC2 (UniProt P06493); conditions: affinity matrix / lysate: Kinobeads, mixed HEK293/K-562/placenta lysate
CDK7 = CDK7 (UniProt P50613); conditions: affinity matrix / lysate: Kinobeads, mixed HEK293/K-562/placenta lysate
CDKL5 = CDKL5 (UniProt O76039); conditions: affinity matrix / lysate: Kinobeads, mixed HEK293/K-562/placenta lysate
CHEK2 = CHEK2 (UniProt O96017); conditions: affinity matrix / lysate: Kinobeads, mixed HEK293/K-562/placenta lysate
INSR = INSR (UniProt P06213); conditions: affinity matrix / lysate: Kinobeads, mixed HEK293/K-562/placenta lysate
IRAK3 = IRAK3 (UniProt Q9Y616); conditions: affinity matrix / lysate: Kinobeads, mixed HEK293/K-562/placenta lysate
IRAK3, sequence (Q9Y616 whole entry): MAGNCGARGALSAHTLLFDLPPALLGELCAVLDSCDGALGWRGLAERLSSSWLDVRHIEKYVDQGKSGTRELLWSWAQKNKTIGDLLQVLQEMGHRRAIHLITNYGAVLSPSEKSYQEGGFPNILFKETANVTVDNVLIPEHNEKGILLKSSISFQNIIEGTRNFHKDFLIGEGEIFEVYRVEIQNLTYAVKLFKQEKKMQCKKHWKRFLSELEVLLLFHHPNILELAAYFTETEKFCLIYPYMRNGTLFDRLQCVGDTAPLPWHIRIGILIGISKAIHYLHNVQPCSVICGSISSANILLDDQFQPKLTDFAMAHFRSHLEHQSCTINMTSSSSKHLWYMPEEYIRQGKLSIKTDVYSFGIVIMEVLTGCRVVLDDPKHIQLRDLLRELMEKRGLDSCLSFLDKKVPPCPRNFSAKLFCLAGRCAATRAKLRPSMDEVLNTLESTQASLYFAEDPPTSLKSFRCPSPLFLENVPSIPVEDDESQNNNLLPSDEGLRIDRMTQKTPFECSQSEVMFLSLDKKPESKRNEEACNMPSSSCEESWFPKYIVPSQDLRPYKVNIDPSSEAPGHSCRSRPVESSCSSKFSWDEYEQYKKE

ITK = ITK (UniProt Q08881); conditions: affinity matrix / lysate: Kinobeads, mixed HEK293/K-562/placenta lysate
ITK, sequence (Q08881 whole entry): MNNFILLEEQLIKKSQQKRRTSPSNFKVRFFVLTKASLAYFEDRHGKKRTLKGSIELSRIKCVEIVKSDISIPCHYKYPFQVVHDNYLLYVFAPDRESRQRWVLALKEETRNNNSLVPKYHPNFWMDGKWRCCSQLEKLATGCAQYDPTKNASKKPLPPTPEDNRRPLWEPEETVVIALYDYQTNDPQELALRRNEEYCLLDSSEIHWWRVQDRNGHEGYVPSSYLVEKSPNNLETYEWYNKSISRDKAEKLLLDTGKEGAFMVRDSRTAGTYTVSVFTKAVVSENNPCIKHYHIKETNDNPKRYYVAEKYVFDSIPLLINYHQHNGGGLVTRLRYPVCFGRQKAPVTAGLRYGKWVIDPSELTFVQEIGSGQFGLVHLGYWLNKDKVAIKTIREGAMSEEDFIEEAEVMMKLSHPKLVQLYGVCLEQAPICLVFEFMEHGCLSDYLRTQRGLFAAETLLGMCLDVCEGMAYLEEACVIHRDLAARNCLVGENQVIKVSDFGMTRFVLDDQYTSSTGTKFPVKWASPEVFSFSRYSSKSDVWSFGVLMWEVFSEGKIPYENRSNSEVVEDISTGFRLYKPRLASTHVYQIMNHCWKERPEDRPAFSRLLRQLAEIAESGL

MAP3K2 = MAP3K2 (UniProt Q9Y2U5); conditions: affinity matrix / lysate: Kinobeads, mixed HEK293/K-562/placenta lysate
MAP3K2, sequence (Q9Y2U5 whole entry): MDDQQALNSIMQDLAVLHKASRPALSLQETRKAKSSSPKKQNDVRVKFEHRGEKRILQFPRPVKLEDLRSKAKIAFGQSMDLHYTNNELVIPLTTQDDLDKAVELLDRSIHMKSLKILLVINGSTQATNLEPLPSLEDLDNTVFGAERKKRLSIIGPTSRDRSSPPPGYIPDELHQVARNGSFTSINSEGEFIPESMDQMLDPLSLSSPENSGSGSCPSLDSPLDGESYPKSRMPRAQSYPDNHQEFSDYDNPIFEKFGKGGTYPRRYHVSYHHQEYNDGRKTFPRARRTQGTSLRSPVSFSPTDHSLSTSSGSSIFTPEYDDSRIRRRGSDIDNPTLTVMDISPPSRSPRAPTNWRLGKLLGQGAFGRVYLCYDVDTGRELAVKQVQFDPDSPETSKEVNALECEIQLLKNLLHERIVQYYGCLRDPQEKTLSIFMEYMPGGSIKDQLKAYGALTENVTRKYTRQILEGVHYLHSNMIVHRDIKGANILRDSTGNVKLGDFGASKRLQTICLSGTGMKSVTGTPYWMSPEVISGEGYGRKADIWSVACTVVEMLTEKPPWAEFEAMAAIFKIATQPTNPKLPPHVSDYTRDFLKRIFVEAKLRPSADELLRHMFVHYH

MAPK9 = MAPK9 (UniProt P45984); conditions: affinity matrix / lysate: Kinobeads, mixed HEK293/K-562/placenta lysate
NEK7 = NEK7 (UniProt Q8TDX7); conditions: affinity matrix / lysate: Kinobeads, mixed HEK293/K-562/placenta lysate
NEK7, sequence (Q8TDX7 whole entry, looked up): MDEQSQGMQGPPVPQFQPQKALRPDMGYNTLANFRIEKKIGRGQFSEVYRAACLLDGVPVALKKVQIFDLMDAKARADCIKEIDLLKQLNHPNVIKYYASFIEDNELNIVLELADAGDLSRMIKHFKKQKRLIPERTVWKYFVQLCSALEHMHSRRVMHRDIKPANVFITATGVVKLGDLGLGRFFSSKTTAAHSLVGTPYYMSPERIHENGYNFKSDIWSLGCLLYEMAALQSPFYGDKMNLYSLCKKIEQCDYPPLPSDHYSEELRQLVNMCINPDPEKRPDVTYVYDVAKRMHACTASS

NTRK1 = NTRK1 (UniProt P04629); conditions: affinity matrix / lysate: Kinobeads, mixed HEK293/K-562/placenta lysate
PDIK1L = PDIK1L (UniProt Q8N165); conditions: affinity matrix / lysate: Kinobeads, mixed HEK293/K-562/placenta lysate
PDIK1L, sequence (Q8N165 whole entry): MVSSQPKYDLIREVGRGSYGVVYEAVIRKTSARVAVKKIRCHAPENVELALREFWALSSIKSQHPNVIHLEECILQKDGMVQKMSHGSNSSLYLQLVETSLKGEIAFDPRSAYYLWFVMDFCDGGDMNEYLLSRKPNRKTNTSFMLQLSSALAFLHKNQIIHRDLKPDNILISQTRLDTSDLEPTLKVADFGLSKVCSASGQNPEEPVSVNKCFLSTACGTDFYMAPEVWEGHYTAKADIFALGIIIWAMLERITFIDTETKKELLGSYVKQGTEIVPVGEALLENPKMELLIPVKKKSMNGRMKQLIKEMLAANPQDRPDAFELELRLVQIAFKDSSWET

PFTK1 = PFTK1 (UniProt O94921); conditions: affinity matrix / lysate: Kinobeads, mixed HEK293/K-562/placenta lysate
PFTK1, sequence (O94921 whole entry): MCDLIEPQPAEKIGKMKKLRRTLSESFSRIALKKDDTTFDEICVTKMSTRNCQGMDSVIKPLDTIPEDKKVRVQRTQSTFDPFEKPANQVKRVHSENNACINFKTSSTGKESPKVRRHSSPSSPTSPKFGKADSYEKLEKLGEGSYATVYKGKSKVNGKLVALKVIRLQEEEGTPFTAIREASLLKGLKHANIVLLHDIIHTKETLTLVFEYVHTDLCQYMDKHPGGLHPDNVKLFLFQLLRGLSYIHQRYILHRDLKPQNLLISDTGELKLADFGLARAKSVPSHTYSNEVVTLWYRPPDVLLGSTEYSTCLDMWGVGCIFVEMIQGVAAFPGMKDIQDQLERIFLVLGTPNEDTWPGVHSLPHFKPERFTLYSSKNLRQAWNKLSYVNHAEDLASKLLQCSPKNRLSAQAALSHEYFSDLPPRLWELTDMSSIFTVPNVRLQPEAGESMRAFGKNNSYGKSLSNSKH

PHKG2 = PHKG2 (UniProt P15735); conditions: affinity matrix / lysate: Kinobeads, mixed HEK293/K-562/placenta lysate
PIK3R4 = PIK3R4 (UniProt Q99570); conditions: affinity matrix / lysate: Lipid Kinobeads, mixed HeLa/Jurkat/K-562 lysate
PKN2 = PKN2 (UniProt Q16513); conditions: affinity matrix / lysate: Kinobeads, mixed HEK293/K-562/placenta lysate
PKN3 = PKN3 (UniProt Q6P5Z2); conditions: affinity matrix / lysate: Kinobeads, mixed HEK293/K-562/placenta lysate
PKN3, sequence (Q6P5Z2 whole entry, looked up): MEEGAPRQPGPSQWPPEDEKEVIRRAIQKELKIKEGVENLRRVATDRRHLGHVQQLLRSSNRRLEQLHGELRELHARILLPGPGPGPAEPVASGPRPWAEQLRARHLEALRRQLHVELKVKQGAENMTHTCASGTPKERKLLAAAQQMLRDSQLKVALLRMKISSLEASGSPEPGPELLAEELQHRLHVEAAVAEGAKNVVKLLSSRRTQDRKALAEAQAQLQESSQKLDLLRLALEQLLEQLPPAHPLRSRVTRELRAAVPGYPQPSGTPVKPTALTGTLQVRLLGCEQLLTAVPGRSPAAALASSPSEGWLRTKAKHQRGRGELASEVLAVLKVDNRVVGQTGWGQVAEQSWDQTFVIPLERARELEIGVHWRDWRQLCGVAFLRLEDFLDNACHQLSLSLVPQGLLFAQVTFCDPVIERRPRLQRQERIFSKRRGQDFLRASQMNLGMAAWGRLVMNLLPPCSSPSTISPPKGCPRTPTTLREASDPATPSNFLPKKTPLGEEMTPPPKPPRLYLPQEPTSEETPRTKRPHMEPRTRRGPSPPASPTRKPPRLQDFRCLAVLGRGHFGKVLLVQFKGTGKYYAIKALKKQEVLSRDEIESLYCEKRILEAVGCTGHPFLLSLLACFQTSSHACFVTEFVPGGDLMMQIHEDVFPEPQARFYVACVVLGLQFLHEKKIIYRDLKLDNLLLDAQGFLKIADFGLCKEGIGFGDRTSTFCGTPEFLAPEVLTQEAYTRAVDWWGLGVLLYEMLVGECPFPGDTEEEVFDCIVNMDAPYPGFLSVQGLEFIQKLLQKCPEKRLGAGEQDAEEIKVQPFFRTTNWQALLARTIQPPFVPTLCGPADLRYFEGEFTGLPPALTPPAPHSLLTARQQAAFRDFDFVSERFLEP

PLK1 = PLK1 (UniProt P53350); conditions: affinity matrix / lysate: Kinobeads, mixed HEK293/K-562/placenta lysate
PRKAA1 = PRKAA1 (UniProt Q13131); conditions: affinity matrix / lysate: Kinobeads, mixed HEK293/K-562/placenta lysate
PRKCA = PRKCA (UniProt P17252); conditions: affinity matrix / lysate: Kinobeads, mixed HEK293/K-562/placenta lysate
PRKCD = PRKCD (UniProt Q05655); conditions: affinity matrix / lysate: Kinobeads, mixed HEK293/K-562/placenta lysate
PRKD2 = PRKD2 (UniProt Q9BZL6); conditions: affinity matrix / lysate: Kinobeads, mixed HEK293/K-562/placenta lysate
STK17B = STK17B (UniProt O94768); conditions: affinity matrix / lysate: Kinobeads, mixed HEK293/K-562/placenta lysate
STK35 = STK35 (UniProt Q8TDR2); conditions: affinity matrix / lysate: Kinobeads, mixed HEK293/K-562/placenta lysate
STK38L = STK38L (UniProt Q9Y2H1); conditions: affinity matrix / lysate: Kinobeads, mixed HEK293/K-562/placenta lysate
STRADA = STRADA (UniProt Q7RTN6); conditions: affinity matrix / lysate: Kinobeads, mixed HEK293/K-562/placenta lysate
TAOK1 = TAOK1 (UniProt Q7L7X3); conditions: affinity matrix / lysate: Kinobeads, mixed HEK293/K-562/placenta lysate
TGFBR1 = TGFBR1 (UniProt P36897); conditions: affinity matrix / lysate: Kinobeads, mixed HEK293/K-562/placenta lysate
TGFBR1, sequence (P36897 whole entry): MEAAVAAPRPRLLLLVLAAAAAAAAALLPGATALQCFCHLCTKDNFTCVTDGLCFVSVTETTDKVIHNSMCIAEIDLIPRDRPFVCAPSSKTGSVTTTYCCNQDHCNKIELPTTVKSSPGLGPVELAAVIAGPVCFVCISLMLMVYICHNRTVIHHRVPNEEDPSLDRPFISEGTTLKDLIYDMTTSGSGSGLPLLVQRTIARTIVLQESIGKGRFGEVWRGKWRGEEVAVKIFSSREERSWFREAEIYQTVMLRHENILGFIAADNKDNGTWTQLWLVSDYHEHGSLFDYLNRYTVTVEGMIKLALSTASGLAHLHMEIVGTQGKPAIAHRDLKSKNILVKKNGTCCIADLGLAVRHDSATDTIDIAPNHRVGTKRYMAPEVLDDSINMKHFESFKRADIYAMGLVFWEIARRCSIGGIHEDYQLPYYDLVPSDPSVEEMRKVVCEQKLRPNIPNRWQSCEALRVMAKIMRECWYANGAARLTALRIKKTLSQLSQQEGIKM

TP53RK = TP53RK (UniProt Q96S44); conditions: affinity matrix / lysate: Kinobeads, mixed HEK293/K-562/placenta lysate
TP53RK, sequence (Q96S44 whole entry): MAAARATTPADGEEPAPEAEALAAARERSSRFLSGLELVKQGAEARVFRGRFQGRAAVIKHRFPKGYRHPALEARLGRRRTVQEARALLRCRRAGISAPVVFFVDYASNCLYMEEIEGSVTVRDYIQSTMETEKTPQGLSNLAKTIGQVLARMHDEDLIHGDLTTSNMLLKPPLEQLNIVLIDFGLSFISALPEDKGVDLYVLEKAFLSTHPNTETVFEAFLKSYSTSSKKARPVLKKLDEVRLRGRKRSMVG

Measured: apparent dissociation constant (-log10 M)

AURKB, sequence (Q96GD4 whole entry): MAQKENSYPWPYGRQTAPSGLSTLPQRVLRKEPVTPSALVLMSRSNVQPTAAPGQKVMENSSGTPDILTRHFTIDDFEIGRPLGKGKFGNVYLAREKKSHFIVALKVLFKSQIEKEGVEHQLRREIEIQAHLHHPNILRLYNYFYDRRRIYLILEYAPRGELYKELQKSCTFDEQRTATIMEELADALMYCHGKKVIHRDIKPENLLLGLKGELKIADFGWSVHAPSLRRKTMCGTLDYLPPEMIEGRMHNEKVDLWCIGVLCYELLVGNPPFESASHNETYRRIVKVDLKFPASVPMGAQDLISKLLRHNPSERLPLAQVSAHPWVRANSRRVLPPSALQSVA

COc1ccc(-c2ccc3c(N4CCOC[C@@H]4C)nc(N4CCOC[C@@H]4C)nc3n2)cc1CO [AZD8055]
< 6: AURKB | BCR | BMP2K | CAMK2B | CDC2 | CDK7 | CDKL5 | CHEK2 | INSR | IRAK3 | ITK | MAP3K2 | MAPK9 | NEK7 | NTRK1 | PDIK1L | PFTK1 | PHKG2 | PIK3R4 | PKN2 | PKN3 | PLK1 | PRKAA1 | PRKCA | PRKCD | PRKD2 | STK17B | STK35 | STK38L | STRADA | TAOK1 | TGFBR1 | TP53RK

CCNC(=O)Nc1ccc(-c2nc(N3CCOC[C@@H]3C)c3c(n2)C(C)(C)S(=O)(=O)C3)cc1 [CZ415]
< 6: AURKB | BCR | BMP2K | CAMK2B | CDC2 | CDK7 | CDKL5 | CHEK2 | INSR | IRAK3 | ITK | MAP3K2 | MAPK9 | NEK7 | NTRK1 | PDIK1L | PFTK1 | PHKG2 | PIK3R4 | PKN2 | PKN3 | PLK1 | PRKAA1 | PRKCA | PRKCD | PRKD2 | STK17B | STK35 | STK38L | STRADA | TAOK1 | TGFBR1 | TP53RK

Source: the supplement of paper PMC6315032
